Reference: patent publication US7211422B2, “Polypeptide having α-isomaltosylglucosaccharide synthase activity” (Kabushiki Kaisha Hayashibara Seibutsu Kagaku Kenkyujo, priority 2001, dated 2007)

Assays:
[1] = test system: polypeptide having α-isomaltosylglucosaccharide-forming enzyme activity; test: Action on saccharides, summary in words for the polypeptide in general; type: biochemical; conditions: summary of Table 7
Experimental: (§1) It was tested whether saccharides can be used as substrates for the polypeptide of α-isomaltosylglucosaccharide-forming enzyme of the present invention. For the purpose, a solution of maltose, maltotriose, maltotetraose, maltopentaose, maltohexaose, maltoheptaose, isomaltose, isomaltotriose, panose, isopanose, trehalose, kojibiose, nigerose, neotrehalose, cellobiose, gentibiose, maltitol, maltotriitol, lactose, sucrose, erlose, selaginose, maltosyl glucoside, or isomaltosyl glucoside was prepared.
(§2) To each of the above solutions was added two units/g substrate of a purified polypeptide specimen of α-isomaltosylglucosaccharide-forming enzyme from either Bacillus globisporus C11 obtained by the method in Experiment 1-3, Bacillus globisporus N75 obtained by the method in Experiment 2-3, or Arthrobacter globiformis A19 obtained by the method in Experiment 3-3, and the resulting each solution was adjusted to give a substrate concentration of 2% (w/v) and incubated at 30° C. and pH 6.0, except for using pH 8.4 for the enzyme from Arthrobacter globiformis A19, for 24 hours. In order to analyze the saccharides in the reaction mixture before and after the enzymatic reaction, silica gel thin-layer chromatography (hereinafter, abbreviated as “TLC”) was carried out. After two-times development using, as a developer, a mixture solution of n-butanol, pyridine, and water (=6:4:1), and, as a thin-layer plate, “KIESELGEL 60”, an aluminum plate (20×20 cm) for TLC commercialized by Merck & Co., Inc., Rahway, USA, the saccharides in the reaction mixture were examined whether the enzyme acted or not by the coloration of sugars by the sulfuric acid-methanol method.

[2] = test system: α-isomaltosylglucosaccharide-forming enzyme from Bacillus globisporus N75; test: Action on saccharides (TLC before and after enzymatic reaction); type: biochemical; parameters: key: −: it showed no change; +: it showed a slight reduction of the color spot of the substrate and the formation of other reaction product; ++: it showed a high reduction of the color spot of the substrate and the formationof other reaction product; +++: it showed a substantial disappearance of the substrate spot and the formation of other reaction product; conditions: two units/g substrate, substrate 2% (w/v), 30° C., pH 6.0, 24 hours
Experimental: as §1, §2

[3] = test system: α-isomaltosylglucosaccharide-forming enzyme from Bacillus globisporus C11; test: as above; type: biochemical; parameters: key: −: it showed no change; +: it showed a slight reduction of the color spot of the substrate and the formation of other reaction product; ++: it showed a high reduction of the color spot of the substrate and the formationof other reaction product; +++: it showed a substantial disappearance of the substrate spot and the formation of other reaction product; conditions: two units/g substrate, substrate 2% (w/v), 30° C., pH 6.0, 24 hours
Experimental: as §1, §2

[4] = test system: α-isomaltosylglucosaccharide-forming enzyme from Arthrobacter globiformis A19; test: as above; type: biochemical; parameters: key: −: it showed no change; +: it showed a slight reduction of the color spot of the substrate and the formation of other reaction product; ++: it showed a high reduction of the color spot of the substrate and the formationof other reaction product; +++: it showed a substantial disappearance of the substrate spot and the formation of other reaction product; conditions: two units/g substrate, substrate 2% (w/v), 30° C., pH 8.4, 24 hours
Experimental: as §1, §2

[5] = test system: polypeptide having α-isomaltosylglucosaccharide-forming enzyme activity, obtained in Experiment 1-3; test: Reaction product from maltooligosaccharide (sugar composition by HPLC); type: biochemical, Bacillus globisporus C11; parameters: unit not given here; conditions: 1% (w/v) substrate, 35° C., pH 6.0, 8 hours
Experimental: To an aqueous solution containing one percent (w/v) of maltose, maltotriose, maltotetraose, or maltopentaose as a substrate was added the polypeptide having α-isomaltosylglucosaccgaride-forming enzyme activity, obtained in Experiment 1-3, in an amount of two units/g-solid for maltose and maltotriose, 0.2 unit/g-solid for maltotetraose, and 0.1 unit/g-solid for maltopentaose, followed by incubation at 35° C. and pH 6.0 for 8 hours. After stopping the enzymatic reaction by a 10-minutes incubation, sugar compositions in the reaction mixture were measured by HPLC using “YMC Pack ODS-AQ303”, a column commercialized by YMC Co., Ltd., Tokyo, Japan, at a column temperature of 40° C. and a flow rate of 0.5 ml/minutes of water, and using as a detector “RI-8012”, a differential refractometer commercialized by Tosoh Corporation, Tokyo, Japan.

Structure (SMILES) | Action of the polypeptide on the saccharide (in words) [1] | Enzyme action, N75 enzyme [2] | Enzyme action, C11 enzyme [3] | Enzyme action, A19 enzyme [4] | Sugar composition of reaction mixture, substrate Maltopentaose ([5]; 0.1 unit/g-solid) | Sugar composition of reaction mixture, substrate Maltotetraose ([5]; 0.2 unit/g-solid) | Sugar composition of reaction mixture, substrate Maltotriose ([5]; two units/g-solid) | Sugar composition of reaction mixture, substrate Mlatose ([5]; two units/g-solid)
OC[C@H]1O[C@@](CO)(O[C@H]2O[C@H](CO)[C@@H](O[C@H]3O[C@H](CO)[C@@H](O)[C@H](O)[C@H]3O)[C@H](O)[C@H]2O)[C@@H](O)[C@@H]1O [Erlose, erlose] | slightly acted | + | + | + | – | – | – | –
OC[C@H]1O[C@H](O[C@H]2[C@H](O)[C@@H](O)[C@H](O)O[C@@H]2CO)[C@H](O)[C@@H](O)[C@@H]1O [Maltose, maltose] | slightly acted | + | + | + | 0.0 | 0.3 | 17.9 | 78.0
OC[C@@H](O)[C@@H](O[C@H]1O[C@H](CO)[C@@H](O[C@H]2O[C@H](CO)[C@@H](O)[C@H](O)[C@H]2O)[C@H](O)[C@H]1O)[C@H](O)[C@@H](O)CO [Maltotriitol, maltotriitol] | slightly acted | + | + | + | – | – | – | –
OC[C@H]1O[C@H](O[C@H]2[C@H](O)[C@@H](CO)OC(O)[C@@H]2O)[C@H](O)[C@@H](O)[C@@H]1O (stereo partly shown) [Nigerose, nigerose] | slightly acted | + | + | + | – | – | – | –

More lines, now with the values ahead:

Action of the polypeptide on the saccharide (in words) [1] | Enzyme action, N75 enzyme [2] | Enzyme action, C11 enzyme [3] | Enzyme action, A19 enzyme [4] | Sugar composition of reaction mixture, substrate Maltopentaose ([5]; 0.1 unit/g-solid) | Sugar composition of reaction mixture, substrate Maltotetraose ([5]; 0.2 unit/g-solid) | Sugar composition of reaction mixture, substrate Maltotriose ([5]; two units/g-solid) | Sugar composition of reaction mixture, substrate Mlatose ([5]; two units/g-solid) | Structure (SMILES)
slightly acted | + | + | + | – | – | – | – | OC[C@H]1O[C@H](O[C@H]2C(O)O[C@H](CO)[C@@H](O)[C@@H]2O)[C@H](O)[C@@H](O)[C@@H]1O (stereo partly shown) [Kojibiose, kojibiose]
slightly acted | + | + | + | – | – | – | – | OC[C@H]1O[C@@H](O[C@H]2O[C@H](CO)[C@@H](O)[C@H](O)[C@H]2O)[C@H](O)[C@@H](O)[C@@H]1O [Neotrehalose, neotrehalose]
